# Laboratory results: ChEMBL document CHEMBL1147296, “Faeriefungin: a new broad-spectrum antibiotic from Streptomyces griseus var. autotrophicus” (J Nat Prod, 1989)
# How the values were obtained:
# [1] = Toxicity against rat WB-F344 cells assessed as cell viability at 0.5 ppm after 1 hr using trypan blue staining by LDH assay; assay type: cell-based; conditions: read-out: Activity
# [2] = Toxicity against human erythrocytes at 0.05 ppm after 60 mins by turbidimetry; assay type: cell-based; conditions: erythrocyte, 1 h
# [3] = Toxicity against rat WB-F344 cells assessed as cell viability at 50 ppm after 1 hr using trypan blue staining by LDH assay; assay type: cell-based; conditions: read-out: Activity
# [4] = Toxicity against human erythrocytes at 50 ppm after 60 mins by turbidimetry; assay type: cell-based; conditions: erythrocyte, 1 h
# [5] = Toxicity against human erythrocytes at 20 ppm after 60 mins by turbidimetry; assay type: cell-based; conditions: erythrocyte, 1 h
# Aspergillus fumigatus = test: Antifungal activity against Aspergillus fumigatus MSU-SM 920 after 2 to 4 days; assay type: functional
# [6] = Toxicity against human erythrocytes at 0.5 ppm after 60 mins by turbidimetry; assay type: cell-based; conditions: erythrocyte, 1 h
# Trichophyton rubrum = test: Antifungal activity against Trichophyton rubrum after 2 to 4 days; assay type: functional
# [7] = Toxicity against rat WB-F344 cells assessed as cell viability at 20 ppm after 1 hr using trypan blue staining by LDH assay; assay type: cell-based; conditions: read-out: Activity
# Candida albicans = test: Antifungal activity against Candida albicans MSU-SM 543 after 2 to 4 days; assay type: functional
# [8] = Toxicity against rat WB-F344 cells assessed as cell viability at 0.05 ppm after 1 hr using trypan blue staining by LDH assay; assay type: cell-based; conditions: read-out: Activity
# Microsporum canis = test: Antifungal activity against Microsporum canis after 2 to 4 days; assay type: functional
Molecule,"viability at 1 h, 0.5 ppm [1] [%]",Activity [2],"viability at 1 h, 50 ppm [3] [%]",Activity [4],Activity [5],MIC (Aspergillus fumigatus) [µg/mL],Activity [6],MIC (Trichophyton rubrum) [µg/mL],"viability at 1 h, 20 ppm [7] [%]",MIC (Candida albicans) [µg/mL],"viability at 1 h, 0.05 ppm [8] [%]",MIC (Microsporum canis) [µg/mL]
C[C@@H]1[C@H](O)[C@@H](C)/C=C/C=C/C=C/C=C/C=C/C=C/C=C/[C@H](O[C@@H]2O[C@H](C)[C@@H](O)[C@H](N)[C@@H]2O)C[C@@H]2O[C@](O)(C[C@@H](O)C[C@@H](O)[C@H](O)CC[C@@H](O)C[C@@H](O)CC(=O)O[C@H]1C)C[C@H](O)[C@H]2C(=O)O [AMPHOTERICIN B],100,Non-toxic,0,Toxic,Toxic,80,Non-toxic,16,0,3.2,100,16
Clc1ccccc1C(c1ccccc1)(c1ccccc1)n1ccnc1 [CLOTRIMAZOLE],–,–,–,–,–,1,–,80,–,1,–,16
CC(=O)N1CCN(c2ccc(OCC3COC(Cn4ccnc4)(c4ccc(Cl)cc4Cl)O3)cc2)CC1 (configuration not stated) [KETOCONAZOLE],–,–,–,–,–,1,–,5.5,–,0.5,–,5.5
Clc1ccc(COC(Cn2ccnc2)c2ccc(Cl)cc2Cl)c(Cl)c1 (configuration not stated) [MICONAZOLE],–,–,–,–,–,8,–,80,–,1,–,16
C[C@@H]1C/C=C/C=C/C=C/C=C/[C@H](O[C@@H]2O[C@H](C)[C@@H](O)[C@H](N)[C@@H]2O)C[C@@H]2O[C@](O)(C[C@@H](O)C[C@H]3O[C@@H]3/C=C/C(=O)O1)C[C@H](O)[C@H]2C(=O)O [NATAMYCIN],–,–,–,–,–,16,–,16,–,5.5,–,16
NYSTATIN,–,–,–,–,–,100,–,100,–,3.2,–,100
